The text below walks through data of ChEMBL document CHEMBL4725344, “Development of Highly Potent Carbazole Amphiphiles as Membrane-Targeting Antimicrobials for Treating Gram-Positive Bacterial Infections” (J Med Chem, 2020).

Series [1] in a line: Hemolytic activity in rabbit erythrocytes measured after 1 hr by microplate reader analysis. The format is ADME, cell-based, Oryctolagus cuniculus, Erythrocyte.
The subject of series [2] is Staphylococcus aureus. Nature of the series: Antibacterial activity against methicillin-resistant Staphylococcus aureus NCTC 10442 measured after 24 hrs by microplate reader analysis. The class given is functional.
Series [3] can be described thus: Solubility of the compound in water. The format is physicochemical. The settings on record: buffer.
The subject of series [4] is Staphylococcus aureus. Nature of the series: Antibacterial activity against methicillin-resistant Staphylococcus aureus N315 measured after 24 hrs by microplate reader analysis. The class given is functional.
In series [5] the test system is Staphylococcus aureus. Nature of the series: Antibacterial activity against Staphylococcus aureus ATCC 29213 measured after 24 hrs by microplate reader analysis. The format is functional.
Series [6] can be described thus: Selectivity ratio of MIC for methicillin-resistant Staphylococcus aureus NCTC 10442 to MIC for Staphylococcus epidermidis CMCC 26069. The class given is functional.
For another series, the system named is Bacillus spizizenii. Kind of series: Antibacterial activity against Bacillus subtilis ATCC 6633 measured after 24 hrs by microplate reader analysis. The format is functional.
Series [7] in a line: Selectivity ratio of MIC for Staphylococcus aureus ATCC 29213 to MIC for Staphylococcus epidermidis CMCC 26069. The format is functional.
Series [8] in a line: Selectivity ratio of MIC for methicillin-resistant Staphylococcus aureus N315 to MIC for Bacillus subtilis ATCC 6633. The format is functional.
A short description of series [9]: Selectivity ratio of MIC for Staphylococcus aureus ATCC 29213 to MIC for Bacillus subtilis ATCC 6633. The class given is functional.
Series [10] has as its system Staphylococcus epidermidis. Kind of series: Antibacterial activity against Staphylococcus epidermidis ATCC 12228 measured after 24 hrs by microplate reader analysis. The class given is functional.
The nature of series [11]: Selectivity ratio of MIC for methicillin-resistant Staphylococcus aureus NCTC 10442 to MIC for Staphylococcus epidermidis ATCC 12228. The format is functional.
Series [12] is described as follows: Selectivity ratio of MIC for methicillin-resistant Staphylococcus aureus N315 to MIC for Bacillus subtilis CMCC 63501. The format is functional.
Series [13] is described as follows: Selectivity ratio of MIC for methicillin-resistant Staphylococcus aureus N315 to MIC for Staphylococcus epidermidis CMCC 26069. The class given is functional.
Series [14] concerns Staphylococcus epidermidis. Kind of series: Antibacterial activity against Staphylococcus epidermidis CMCC 26069 measured after 24 hrs by microplate reader analysis. The format is functional.
A short description of series [15]: Selectivity ratio of MIC for methicillin-resistant Staphylococcus aureus NCTC 10442 to MIC for Bacillus subtilis CMCC 63501. The format is functional.
Series [16] is described as follows: Selectivity ratio of MIC for Staphylococcus aureus ATCC 29213 to MIC for Staphylococcus epidermidis ATCC 12228. The format is functional.
A short description of series [17]: Selectivity ratio of MIC for methicillin-resistant Staphylococcus aureus NCTC 10442 to MIC for Bacillus subtilis ATCC 6633. The format is functional.
In another series the test system is Bacillus subtilis. Nature of the series: Antibacterial activity against Bacillus subtilis CMCC 63501 measured after 24 hrs by microplate reader analysis. The class given is functional.
Series [18] is described as follows: Selectivity ratio of MIC for methicillin-resistant Staphylococcus aureus N315 to MIC for Staphylococcus epidermidis ATCC 12228. The class given is functional.
A short description of series [19]: Selectivity ratio of MIC for Staphylococcus aureus ATCC 29213 to MIC for Bacillus subtilis CMCC 63501. The format is functional.

Molecules are shown by their SMILES. In brackets after ≈: the same amount, converted by molar mass.

The term HC50 denotes the concentration that lyses half of the red blood cells. A low value points to stronger haemolysis. One may read the MIC as the smallest concentration in the dilution series that meets the test's criterion for growth inhibition. A high value points to a less susceptible organism. In turn, `CCCCCCCCNCC(O)COc1cccc2c1c1ccccc1n2CC=C(C)C` (stereo not given) returned an HC50 at 1 h in series [1] of more than 200 µg/mL. Moreover, the MIC against Staphylococcus aureus [2] is 1.56 µg/mL (≈ 3.57 µM); against Staphylococcus aureus [4] it was 1.56 µg/mL (≈ 3.57 µM); in the series on Staphylococcus aureus [5], 6.25 µg/mL (≈ 14.3 µM). In series [3], the solubility result is “Insoluble”.
For `CC(C)=CCn1c2ccccc2c2c(OCC3CO3)cccc21` (stereo not given), the HC50 at 1 h in series [1] was more than 200 µg/mL. For the same molecule, the MIC in the series on Staphylococcus aureus [2], against Staphylococcus aureus [4] and against Staphylococcus aureus [5] was more than 50 µg/mL in each case.
In series [1], `CCNCC(O)COc1cccc2c1c1ccccc1n2CC=C(C)C` (stereo not given) registered an HC50 at 1 h of 156 µg/mL. Further, the MIC amounted to 6.25 µg/mL (≈ 17.7 µM) against Staphylococcus aureus [2], 3.12 µg/mL (≈ 8.87 µM) against Staphylococcus aureus [4] and 6.25 µg/mL (≈ 17.7 µM) against Staphylococcus aureus [5].
With `CCCCCn1c2ccccc2c2c(OCC3CO3)cccc21` (stereo not given), the HC50 at 1 h in [1] was more than 200 µg/mL. In addition, the minimum inhibitory concentration (MIC) in the series with Staphylococcus aureus [2], in the series on Staphylococcus aureus [4] and in the series with Staphylococcus aureus [5] was more than 50 µg/mL in each case.
Molecule `CCCCN(CCCC)CC(O)COc1cccc2c1c1ccccc1n2CC=C(C)C` (stereo not given) displayed an HC50 at 1 h in series [1] of more than 200 µg/mL. In addition, the MIC in the series with Staphylococcus aureus [2], with Staphylococcus aureus [4] and in the series with Staphylococcus aureus [5] was more than 50 µg/mL in each case.
`CN(C)CC(O)COc1cccc2c1c1ccccc1n2C` (stereo not given): the HC50 at 1 h in [1] was more than 200 µg/mL. Moreover, the MIC with Staphylococcus aureus [2], against Staphylococcus aureus [4] and against Staphylococcus aureus [5] was more than 50 µg/mL throughout.
In [1], `CCCCCCCCCn1c2ccccc2c2c(OCC3CO3)cccc21` (stereo not given) yielded an HC50 at 1 h of more than 200 µg/mL. Moreover, the MIC with Staphylococcus aureus [2], against Staphylococcus aureus [4] and with Staphylococcus aureus [5] was more than 50 µg/mL in each case.
In series [1], `CCCCCCCn1c2ccccc2c2c(OCC(O)CN(C)C)cccc21` (stereo not given) displayed an HC50 at 1 h of 182 µg/mL. The MIC with Staphylococcus aureus [2] was 12.5 µg/mL (≈ 32.7 µM); against Staphylococcus aureus [4], 12.5 µg/mL (≈ 32.7 µM); against Staphylococcus aureus [5], 6.25 µg/mL (≈ 16.3 µM).
`CCCCCNCC(O)COc1cccc2c1c1ccccc1n2CC=C(C)C` (stereo not given) showed an HC50 at 1 h in series [1] of more than 200 µg/mL. The values for the MIC against Staphylococcus aureus [2], against Staphylococcus aureus [4] and against Staphylococcus aureus [5] were 12.5 µg/mL (≈ 31.7 µM), 6.25 µg/mL (≈ 15.8 µM) and 12.5 µg/mL (≈ 31.7 µM), respectively.
On to `CCCN(CCC)CC(O)COc1cccc2c1c1ccccc1n2CC=C(C)C` (stereo not given), for which the 50% haemolytic concentration (HC50) at 1 h in series [1] is more than 200 µg/mL. Moreover, the MIC with Staphylococcus aureus [2], against Staphylococcus aureus [4] and with Staphylococcus aureus [5] was more than 50 µg/mL in each case.
In series [1], `CC(C)=CCn1c2ccccc2c2c(OCC(O)CN(C)C)cccc21` (stereo not given) gave an HC50 at 1 h of 119 µg/mL. Moreover, the MIC against Staphylococcus aureus [2] is 3.12 µg/mL (≈ 8.87 µM); with Staphylococcus aureus [4] it was 3.12 µg/mL (≈ 8.87 µM); in the series with Staphylococcus aureus [5], 6.25 µg/mL (≈ 17.7 µM).
In [1], `CC(C)=CCn1c2ccccc2c2c(OCC(O)CN3CCN(C)CC3)cccc21` (stereo not given) yielded an HC50 at 1 h of 70 µg/mL. The MIC against Staphylococcus aureus [2], in the series with Staphylococcus aureus [4] and against Staphylococcus aureus [5] was 12.5 µg/mL (≈ 30.7 µM) throughout.
On to `CC(C)=CCn1c2ccccc2c2c(OCC(O)CNC(=O)[C@@H](N)CCCCN)cccc21` (stereo not given in full), for which the Selectivity ratio in series [6], in [7], in series [8], in series [9], in series [11] and in [12] was 2 in each case. Further, the Selectivity ratio in [13], in series [15], in series [16], in series [17], in series [18] and in [19] was 2 throughout. Also, the MIC in the series with Bacillus spizizenii is 6.25 µg/mL (≈ 13.8 µM); against Staphylococcus aureus [2], 25 µg/mL (≈ 55.2 µM); in [10], 6.25 µg/mL (≈ 13.8 µM); in series [14], 6.25 µg/mL (≈ 13.8 µM); in the series on Staphylococcus aureus [4] it was 12.5 µg/mL (≈ 27.6 µM); against Bacillus subtilis it was 6.25 µg/mL (≈ 13.8 µM). In addition, the MIC in the series on Staphylococcus aureus [5] amounted to 25 µg/mL (≈ 55.2 µM). The same molecule gave an HC50 at 1 h in [1] of more than 200 µg/mL.
In series [1], `CCCCCCCn1c2ccccc2c2c(OCC3CO3)cccc21` (stereo not given) showed an HC50 at 1 h of more than 200 µg/mL. The MIC with Staphylococcus aureus [2], against Staphylococcus aureus [4] and in the series on Staphylococcus aureus [5] was more than 50 µg/mL throughout.
In [1], `Cn1c2ccccc2c2c(OCC3CO3)cccc21` (stereo not given) displayed an HC50 at 1 h of more than 200 µg/mL. The MIC in the series on Staphylococcus aureus [2], in the series with Staphylococcus aureus [4] and against Staphylococcus aureus [5] was more than 50 µg/mL each time.
In the case of `CC(C)=CCn1c2ccccc2c2c(OCC(O)CN(CCO)CCO)cccc21` (stereo not given), the HC50 at 1 h in series [1] is 126 µg/mL. For the same molecule, the MIC in the series with Staphylococcus aureus [2], against Staphylococcus aureus [4] and with Staphylococcus aureus [5] was 25 µg/mL (≈ 60.6 µM) in each case.
On to `CC(C)=CCn1c2ccccc2c2c(OCC(O)CN)cccc21` (stereo not given), for which the HC50 at 1 h in series [1] was more than 200 µg/mL. Also, the MIC with Staphylococcus aureus [2] came out at 6.25 µg/mL (≈ 19.3 µM); against Staphylococcus aureus [4] it was 6.25 µg/mL (≈ 19.3 µM); against Staphylococcus aureus [5], 12.5 µg/mL (≈ 38.5 µM).
